# Data published in patent US9661853B2, “Molecules having pesticidal utility, and intermediates, compositions, and processes, related thereto” (Dow AgroSciences LLC, priority 2015, dated 2017).
# Key:
# [1] = tested on: Beet Armyworm (Spodoptera exigua, LAPHEG); assay: Bioassay on Beet Armyworm (BAW), 128-well diet tray assay; format: in vivo; details: 168 h, 50 μg/cm^2 on artificial diet, second instar larvae, 25° C., five to seven days, average of eight wells, read-out: BAW % Control (or Mortality) rating
# Experimental: (§1) Bioassays on Beet Armyworm (Spodoptera exigua, LAPHEG) (“BAW”) and Cabbage Looper (Trichoplusia ni, TRIPNI) (“CL”)
# (§2) Certain molecules disclosed in this document were tested against BAW and CL using procedures described in the following examples. In the reporting of the results, the “BAW & CL Rating Table” was used (See Table Section).
# Bioassays on BAW were conducted using a 128-well diet tray assay. One to five second instar BAW larvae were placed in each well (3 mL) of the diet tray that had been previously filled with 1 mL of artificial diet to which 50 μg/cm^2 of the test molecule (dissolved in 50 μL of 90:10 acetone-water mixture) had been applied (to each of eight wells) and then allowed to dry. Trays were covered with a clear self-adhesive cover, vented to allow gas exchange, and held at 25° C., 14:10 light-dark for five to seven days. Percent mortality was recorded for the larvae in each well; activity in the eight wells was then averaged. The results are indicated in the table entitled “Table ABC: Biological Results” (See Table Section).
# [2] = tested on: Cabbage Looper (Trichoplusia ni, TRIPNI); assay: Bioassay on Cabbage Looper (CL), 128-well diet tray assay; format: in vivo; details: 168 h, 50 μg/cm^2 on artificial diet, second instar larvae, 25° C., five to seven days, average of eight wells, read-out: CL % Control (or Mortality) rating
# Experimental: as §1, §2
# Bioassays on CL were conducted using a 128-well diet tray assay. One to five second instar CL larvae were placed in each well (3 mL) of the diet tray that had been previously filled with 1 mL of artificial diet to which 50 μg/cm^2 of the test molecule (dissolved in 50 μL of 90:10 acetone-water mixture) had been applied (to each of eight wells) and then allowed to dry. Trays were covered with a clear self-adhesive cover, vented to allow gas exchange, and held at 25° C., 14:10 light-dark for five to seven days. Percent mortality was recorded for the larvae in each well; activity in the eight wells was then averaged. The results are indicated in the table entitled “Table ABC: Biological Results” (See Table Section).
Compound,mortality at 50 µg/cm2 [1],mortality at 50 µg/cm2 [2]
"Cc1ccc(C(C)C)c(N2C(=O)CS/C2=N\C(=O)Nc2ccc(CN(C)c3ncn(-c4ccc(OC(F)(F)F)cc4)n3)cc2)c1 [F24, (Z)-1-(3-(2-Isopropyl-5-methylphenyl)-4-oxothiazolidin-2-ylidene)-3-(4-((methyl(1-(4-(trifluoromethoxy)phenyl)-1H-1,2,4-triazol-3-yl)amino)methyl)phenyl)urea]",50 to 100%,50 to 100%
"Cc1ccc(C(C)C)c(N2C(=O)CS/C2=N\C(=O)Nc2ccc(C(=O)N(C)c3ncn(-c4ccc(OC(F)(F)F)cc4)n3)cc2)c1 [F25, (Z)-4-(3-(3-(2-isopropyl-5-methylphenyl)-4-oxothiazolidin-2-ylidene)ureido)-N-methyl-N-(1-(4-(trifluoromethoxy)phenyl)-1H-1,2,4-triazol-3-yl)benzamide]",50 to 100%,50 to 100%
"Cc1ccc(C(C)C)c(N2C(=O)CS/C2=N\C(=O)Nc2ccc(NC(=O)c3ncn(-c4ccc(OC(F)(F)F)cc4)n3)cc2)c1 [F26, (Z)—N-(4-(3-(3-(2-Isopropyl-5-methylphenyl)-4-oxothiazolidin-2-ylidene)ureido)phenyl)-1-(4-(trifluoromethoxy)phenyl)-1H-1,2,4-triazole-3-carboxamide]",50 to 100%,50 to 100%
"Cc1ccc(C(C)C)c(N2C(=O)CS/C2=N\C(=O)Nc2ccc(N(C)C(=O)c3ncn(-c4ccc(OC(F)(F)F)cc4)n3)cc2)c1 [F27, (Z)—N-(4-(3-(3-(2-Isopropyl-5-methylphenyl)-4-oxothiazolidin-2-ylidene)ureido)phenyl)-N-methyl-1-(4-(trifluoromethoxy)phenyl)-1H-1,2,4-triazole-3-carboxamide]",50 to 100%,50 to 100%
"Cc1ccc(C(C)C)c(N2C(=O)CS/C2=N\C(=O)Nc2ccc(NCc3ncn(-c4ccc(OC(F)(F)F)cc4)n3)cc2)c1 [F28, (Z)-1-(3-(2-isopropyl-5-methylphenyl)-4-oxothiazolidin-2-ylidene)-3-(4-(((1-(4-(trifluoromethoxy)phenyl)-1H-1,2,4-triazol-3-yl)methyl)amino)phenyl)urea]",50 to 100%,50 to 100%
"CCCc1ccc(C)cc1N1C(=O)CS/C1=N\C(=O)Nc1ccc(NCc2ncn(-c3ccc(OC(F)(F)F)cc3)n2)cc1 [F29, (Z)-1-(3-(5-Methyl-2-propylphenyl)-4-oxothiazolidin-2-ylidene)-3-(4-(((1-(4-(trifluoromethoxy)phenyl)-1H-1,2,4-triazol-3-yl)methyl)amino)phenyl)urea]",50 to 100%,50 to 100%
"COCc1ccc(C)cc1N1C(=O)CS/C1=N\C(=O)Nc1ccc(NCc2ncn(-c3ccc(OC(F)(F)F)cc3)n2)cc1 [F30, (Z)-1-(3-(2-(Methoxymethyl)-5-methylphenyl)-4-oxothiazolidin-2-ylidene)-3-(4-(((1-(4-(trifluoromethoxy)phenyl)-1H-1,2,4-triazol-3-yl)methyl)amino)phenyl)urea]",50 to 100%,50 to 100%
"Cc1ccc(C(C)C)c(N2C(=O)CS/C2=N\C(=O)Nc2ccc(NCc3ncn(-c4ccc(OC(F)(F)F)cc4)n3)cc2F)c1 [F31, (Z)-1-(2-Fluoro-4-(((1-(4-(trifluoromethoxy)phenyl)-1H-1,2,4-triazol-3-yl)methyl)amino)phenyl)-3-(3-(2-isopropyl-5-methylphenyl)-4-oxothiazolidin-2-ylidene)urea]",50 to 100%,50 to 100%
"CCCc1ccc(C)cc1N1C(=O)CS/C1=N\C(=O)Nc1ccc(NCc2ncn(-c3ccc(OC(F)(F)F)cc3)n2)cc1F [F32, (Z)-1-(2-Fluoro-4-(((1-(4-(trifluoromethoxy)phenyl)-1H-1,2,4-triazol-3-yl)methyl)amino)phenyl)-3-(3-(5-methyl-2-propylphenyl)-4-oxothiazolidin-2-ylidene)urea]",50 to 100%,50 to 100%
"COCc1ccc(C)cc1N1C(=O)CS/C1=N\C(=O)Nc1ccc(NCc2ncn(-c3ccc(OC(F)(F)F)cc3)n2)cc1F [F33, (Z)-1-(2-Fluoro-4-(((1-(4-(trifluoromethoxy)phenyl)-1H-1,2,4-triazol-3-yl)methyl)amino)phenyl)-3-(3-(2-(methoxymethyl)-5-methylphenyl)-4-oxothiazolidin-2-ylidene)urea]",50 to 100%,50 to 100%
"Cc1ccc(C(C)C)c(N2C(=O)CS/C2=N\C(=O)Nc2ccc(NCc3ncn(-c4ccc(OC(F)(F)F)cc4)n3)c(F)c2)c1 [F34, (Z)-1-(3-Fluoro-4-(((1-(4-(trifluoromethoxy)phenyl)-1H-1,2,4-triazol-3-yl)methyl)amino)phenyl)-3-(3-(2-isopropyl-5-methylphenyl)-4-oxothiazolidin-2-ylidene)urea]",50 to 100%,50 to 100%
"CCCc1ccc(C)cc1N1C(=O)CS/C1=N\C(=O)Nc1ccc(NCc2ncn(-c3ccc(OC(F)(F)F)cc3)n2)c(F)c1 [F35, (Z)-1-(3-Fluoro-4-(((1-(4-(trifluoromethoxy)phenyl)-1H-1,2,4-triazol-3-yl)methyl)amino)phenyl)-3-(3-(5-methyl-2-propylphenyl)-4-oxothiazolidin-2-ylidene)urea]",50 to 100%,50 to 100%
"COCc1ccc(C)cc1N1C(=O)CS/C1=N\C(=O)Nc1ccc(NCc2ncn(-c3ccc(OC(F)(F)F)cc3)n2)c(F)c1 [F36, (Z)-1-(3-Fluoro-4-(((1-(4-(trifluoromethoxy)phenyl)-1H-1,2,4-triazol-3-yl)methyl)amino)phenyl)-3-(3-(2-(methoxymethyl)-5-methylphenyl)-4-oxothiazolidin-2-ylidene)urea]",50 to 100%,50 to 100%
"COc1cc(NC(=O)/N=C2\SCC(=O)N2c2cc(C)ccc2C(C)C)ccc1NCc1ncn(-c2ccc(OC(F)(F)F)cc2)n1 [F37, (Z)-1-(3-(2-Isopropyl-5-methylphenyl)-4-oxothiazolidin-2-ylidene)-3-(3-methoxy-4-(((1-(4-(trifluoromethoxy)phenyl)-1H-1,2,4-triazol-3-yl)methyl)amino)phenyl)urea]",50 to 100%,50 to 100%
"CCCc1ccc(C)cc1N1C(=O)CS/C1=N\C(=O)Nc1ccc(NCc2ncn(-c3ccc(OC(F)(F)F)cc3)n2)c(OC)c1 [F38, (Z)-1-(3-Methoxy-4-(((1-(4-(trifluoromethoxy)phenyl)-1H-1,2,4-triazol-3-yl)methyl)amino)phenyl)-3-(3-(5-methyl-2-propylphenyl)-4-oxothiazolidin-2-ylidene)urea]",50 to 100%,50 to 100%
"COCc1ccc(C)cc1N1C(=O)CS/C1=N\C(=O)Nc1ccc(NCc2ncn(-c3ccc(OC(F)(F)F)cc3)n2)c(OC)c1 [F39, (Z)-1-(3-Methoxy-4-(((1-(4-(trifluoromethoxy)phenyl)-1H-1,2,4-triazol-3-yl)methyl)amino)phenyl)-3-(3-(2-(methoxymethyl)-5-methylphenyl)-4-oxothiazolidin-2-ylidene)urea]",50 to 100%,50 to 100%
"Cc1ccc(C(C)C)c(N2C(=O)CS/C2=N\C(=O)Nc2ccc(NCc3ncn(-c4ccc(OC(F)(F)F)cc4)n3)cc2Cl)c1 [F40, (Z)-1-(2-Chloro-4-(((1-(4-(trifluoromethoxy)phenyl)-1H-1,2,4-triazol-3-yl)methyl)amino)phenyl)-3-(3-(2-isopropyl-5-methylphenyl)-4-oxothiazolidin-2-ylidene)urea]",50 to 100%,50 to 100%
"CCCc1ccc(C)cc1N1C(=O)CS/C1=N\C(=O)Nc1ccc(NCc2ncn(-c3ccc(OC(F)(F)F)cc3)n2)cc1Cl [F41, (Z)-1-(2-Chloro-4-(((1-(4-(trifluoromethoxy)phenyl)-1H-1,2,4-triazol-3-yl)methyl)amino)phenyl)-3-(3-(5-methyl-2-propylphenyl)-4-oxothiazolidin-2-ylidene)urea]",50 to 100%,50 to 100%
"COCc1ccc(C)cc1N1C(=O)CS/C1=N\C(=O)Nc1ccc(NCc2ncn(-c3ccc(OC(F)(F)F)cc3)n2)cc1Cl [F42, (Z)-1-(2-Chloro-4-(((1-(4-(trifluoromethoxy)phenyl)-1H-1,2,4-triazol-3-yl)methyl)amino)phenyl)-3-(3-(2-(methoxymethyl)-5-methylphenyl)-4-oxothiazolidin-2-ylidene)urea]",50 to 100%,50 to 100%
"Cc1ccc(C(C)C)c(N2C(=O)CS/C2=N\C(=O)Nc2ccc(NCc3ncn(-c4ccc(OC(F)(F)F)cc4)n3)c(Cl)c2)c1 [F43, (Z)-1-(3-Chloro-4-(((1-(4-(trifluoromethoxy)phenyl)-1H-1,2,4-triazol-3-yl)methyl)amino)phenyl)-3-(3-(2-isopropyl-5-methylphenyl)-4-oxothiazolidin-2-ylidene)urea]",50 to 100%,50 to 100%
